Source: patent US20260232767A1, “INTERLEUKIN-23 RECEPTOR ANTAGONIST PEPTIDES FOR USE IN THE TREATMENT OF PSORIASIS” (Janssen Pharmaceutica NV, priority 2023, published 2026)

System: subjects with moderate-to-severe plaque psoriasis
Test: Safety, adverse events, Example 2 through Week 56
Type: in vivo, human
Text: The LTE safety analysis was based on randomized participants in Example who entered the present long-term extension study and received at least one dose of study intervention (including a partial dose) during the study period.

[1] = 25 mg BID, Week 16 through Week 56
[2] = 25 mg BID, LTE Safety analysis set

CC(=O)NCCCC[C@@H]1NC(=O)[C@H](Cc2c[nH]c3c(C)cccc23)NC(=O)[C@H]([C@@H](C)O)NC(=O)[C@H](CC(N)=O)NC(=O)[C@@H](NC(C)=O)C(C)(C)SSC(C)(C)[C@@H](C(=O)N[C@@H](Cc2ccc(OCCN)cc2)C(=O)N[C@@H](Cc2ccc3ccccc3c2)C(=O)NC2(C(=O)N[C@@H](CCC(=O)O)C(=O)N[C@@H](CC(N)=O)C(=O)N[C@@H](Cc3cccnc3)C(=O)N(C)CC(N)=O)CCOCC2)NC1=O [IL-23 receptor antagonist peptide, Ac-[Pen]*-N-T-[W(7-Me)]-[Lys(Ac)]-[Pen]*-Phe[4-(2-aminoethoxy)]-[2-Nal]-[THP]-E-N-[3-Pal]-Sarc-NH2 (*[Pen]-[Pen]* formdisulfidebond)]
Subjects with Bronchitis bacterial: 0
Number of subjects with treatment-emergent AE: Cholelithiasis [1]: 0
Number of subjects with treatment-emergent AE: Ear and labyrinth disorders [1]: 0
Number of subjects with treatment-emergent AE: Endocrine disorders [1]: 1
Number of subjects with treatment-emergent AE: Eye disorders [1]: 1
Number of subjects with treatment-emergent AE: Eyelid skin dryness [1]: 1
Number of subjects with treatment-emergent AE: Goiter [1]: 1
Number of subjects with treatment-emergent AE: Hepatobiliary disorders [1]: 0
Number of subjects with treatment-emergent AE: Hypertransaminasemia [1]: 0
Number of subjects with treatment-emergent AE: Immune system disorders [1]: 0
Number of subjects with treatment-emergent AE: Insomnia [1]: 1
Number of subjects with treatment-emergent AE: Ocular cyst [1]: 0
Number of subjects with treatment-emergent AE: Psychiatric disorders [1]: 1
Number of subjects with treatment-emergent AE: Retinal vein occlusion [1]: 0
Number of subjects with treatment-emergent AE: Seasonal allergy [1]: 0
Number of subjects with treatment-emergent AE: Vertigo [1]: 0
Subjects with treatment-emergent AE: Endocrine disorders (%) [1]: (2.5%)
Subjects with treatment-emergent AE: Eye disorders (%) [1]: (2.5%)
Subjects with treatment-emergent AE: Eyelid skin dryness (%) [1]: (2.5%)
Subjects with treatment-emergent AE: Goiter (%) [1]: (2.5%)
Subjects with treatment-emergent AE: Insomnia (%) [1]: (2.5%)
Subjects with treatment-emergent AE: Psychiatric disorders (%) [1]: (2.5%)
Subjects with treatment-emergent AE: Ventricular dysfunction (%) [1]: (2.5%)
Subjects with 1 or more Serious Infections and infestations [2]: 0
Subjects with adverse event: Alanine aminotransferase increased [2]: 0
Subjects with adverse event: Arthralgia [2]: 0
Subjects with adverse event: Aspartate aminotransferase increased [2]: 0
Subjects with adverse event: Vomiting [2]: 0
Subjects with serious adverse event: Cerebrovascular accident [2]: 0
Subjects with serious adverse event: Coronary artery disease [2]: 0
Subjects with serious adverse event: Diverticulitis [2]: 0
Subjects with serious adverse event: Foot deformity [2]: 0
Subjects with serious adverse event: Intervertebral disc protrusion [2]: 0
Subjects with serious adverse event: Non-cardiac chest pain [2]: 0
Subjects with serious adverse event: Uterine leiomyoma [2]: 0
Subjects with AE leading to discontinuation: Alanine aminotransferase increased (25 mg BID, Week 16-56): 0
Subjects with AE leading to discontinuation: Aspartate aminotransferase increased (25 mg BID, Week 16-56): 0
Subjects with AE leading to discontinuation: Ear and labyrinth disorders (25 mg BID, Week 16-56): 0
Subjects with AE leading to discontinuation: Gamma-glutamyltransferase increased (25 mg BID, Week 16-56): 0
Subjects with AE leading to discontinuation: Investigations (25 mg BID, Week 16-56): 0
Subjects with AE leading to discontinuation: Vertigo (25 mg BID, Week 16-56): 0
Subjects with AE leading to discontinuation: Vomiting (25 mg BID, Week 16-56): 0
Subjects with COVID-19 associated AE of interest: SARS-CoV-2 test positive (25 mg BID, Week 16-56): 0
Subjects with treatment-emergent AE: Alanine aminotransferase increased (25 mg BID, Week 16-56): 0
Subjects with treatment-emergent AE: Arthralgia (25 mg BID, Week 16-56): 0
Subjects with treatment-emergent AE: Aspartate aminotransferase increased (25 mg BID, Week 16-56): 0
Subjects with treatment-emergent AE: Vomiting (25 mg BID, Week 16-56): 0
Subjects with treatment-emergent serious AE: Cerebrovascular accident (25 mg BID, Week 16-56): 0
Subjects with treatment-emergent serious AE: Coronary artery disease (25 mg BID, Week 16-56): 0
Subjects with treatment-emergent serious AE: Diverticulitis (25 mg BID, Week 16-56): 0
Subjects with treatment-emergent serious AE: Foot deformity (25 mg BID, Week 16-56): 0
Subjects with treatment-emergent serious AE: General disorders and administration site conditions (25 mg BID, Week 16-56): 0
Subjects with treatment-emergent serious AE: Infections and infestations (25 mg BID, Week 16-56): 0
Subjects with treatment-emergent serious AE: Intervertebral disc protrusion (25 mg BID, Week 16-56): 0
Subjects with treatment-emergent serious AE: Musculoskeletal and connective tissue disorders (25 mg BID, Week 16-56): 0
Subjects with treatment-emergent serious AE: Neoplasms benign, malignant and unspecified (incl cysts and polyps) (25 mg BID, Week 16-56): 0
Subjects with treatment-emergent serious AE: Nervous system disorders (25 mg BID, Week 16-56): 0
Subjects with treatment-emergent serious AE: Non-cardiac chest pain (25 mg BID, Week 16-56): 0
Subjects with treatment-emergent serious AE: Uterine leiomyoma (25 mg BID, Week 16-56): 0
Acrochordon: % of subjects (25 mg BID, through Week 56): (2.4%)
Acrochordon: number of subjects (25 mg BID, through Week 56): 1
Actinic keratosis: number of subjects (25 mg BID, through Week 56): 0
Alopecia: number of subjects (25 mg BID, through Week 56): 0
Asthenia: % of subjects (25 mg BID, through Week 56): (2.4%)
Asthenia: number of subjects (25 mg BID, through Week 56): 1
Asthma: number of subjects (25 mg BID, through Week 56): 0
Atrioventricular block first degree: number of subjects (25 mg BID, through Week 56): 0
Basal cell carcinoma: number of subjects (25 mg BID, through Week 56): 0
Blood and lymphatic system disorders: number of subjects (25 mg BID, through Week 56): 0
Bronchitis chronic: number of subjects (25 mg BID, through Week 56): 0
Bundle branch block right: number of subjects (25 mg BID, through Week 56): 0
Cardiac disorders: % of subjects (25 mg BID, through Week 56): (2.4%)
Cardiac disorders: number of subjects (25 mg BID, through Week 56): 1
Chills: % of subjects (25 mg BID, through Week 56): (2.4%)
Chills: number of subjects (25 mg BID, through Week 56): 1
Cholelithiasis: number of subjects (25 mg BID, through Week 56): 0
Chronic obstructive pulmonary disease: number of subjects (25 mg BID, through Week 56): 0
Coronary artery disease: number of subjects (25 mg BID, through Week 56): 0
Cough: number of subjects (25 mg BID, through Week 56): 0
Decreased appetite: number of subjects (25 mg BID, through Week 56): 0
Depression: number of subjects (25 mg BID, through Week 56): 0
Dermal cyst: number of subjects (25 mg BID, through Week 56): 0
Dermatitis acneiform: number of subjects (25 mg BID, through Week 56): 0
Dermatitis contact: % of subjects (25 mg BID, through Week 56): (2.4%)
Dermatitis contact: number of subjects (25 mg BID, through Week 56): 1
Diabetes mellitus: % of subjects (25 mg BID, through Week 56): (2.4%)
Diabetes mellitus: number of subjects (25 mg BID, through Week 56): 1
Diffuse alopecia: number of subjects (25 mg BID, through Week 56): 0
Dysuria: number of subjects (25 mg BID, through Week 56): 0
Ear and labyrinth disorders: number of subjects (25 mg BID, through Week 56): 0
Endocrine disorders: % of subjects (25 mg BID, through Week 56): (2.4%)
Endocrine disorders: number of subjects (25 mg BID, through Week 56): 1
Eye disorders: % of subjects (25 mg BID, through Week 56): (2.4%)
Eye disorders: number of subjects (25 mg BID, through Week 56): 1
Eyelid skin dryness: % of subjects (25 mg BID, through Week 56): (2.4%)
Eyelid skin dryness: number of subjects (25 mg BID, through Week 56): 1
Fatigue: number of subjects (25 mg BID, through Week 56): 0
General disorders and administration site conditions: % of subjects (25 mg BID, through Week 56): (4.9%)
General disorders and administration site conditions: number of subjects (25 mg BID, through Week 56): 2
Goiter: % of subjects (25 mg BID, through Week 56): (2.4%)
Goiter: number of subjects (25 mg BID, through Week 56): 1
Haemochromatosis: number of subjects (25 mg BID, through Week 56): 0
Hand dermatitis: number of subjects (25 mg BID, through Week 56): 0
Hematuria: number of subjects (25 mg BID, through Week 56): 0
Hepatobiliary disorders: number of subjects (25 mg BID, through Week 56): 0
Hypercholesterolemia: number of subjects (25 mg BID, through Week 56): 0
Hyperglycemia: number of subjects (25 mg BID, through Week 56): 0
Hyperlipidemia: % of subjects (25 mg BID, through Week 56): (2.4%)
Hyperlipidemia: number of subjects (25 mg BID, through Week 56): 1
Hypertension: % of subjects (25 mg BID, through Week 56): (4.9%)
Hypertension: number of subjects (25 mg BID, through Week 56): 2
Hypertransaminasemia: number of subjects (25 mg BID, through Week 56): 0
Hypertriglyceridemia: number of subjects (25 mg BID, through Week 56): 0
Hypoacusis: number of subjects (25 mg BID, through Week 56): 0
Immune system disorders: number of subjects (25 mg BID, through Week 56): 0
Influenza like illness: % of subjects (25 mg BID, through Week 56): (2.4%)
Influenza like illness: number of subjects (25 mg BID, through Week 56): 1
Insomnia: % of subjects (25 mg BID, through Week 56): (2.4%)
Insomnia: number of subjects (25 mg BID, through Week 56): 1
Intertrigo: number of subjects (25 mg BID, through Week 56): 0
